Measurements as given in patent US20110039762A1, “TARGETED ANTIMICROBIAL MOIETIES” (C3 JIAN, INC., priority 2009, published 2011).
Entries after “also recorded” stand apart in the source; their conditions may differ.

What was measured:
[1] = system: microorganisms; assay: Peptides having multiple activities (targeting/binding, antimicrobial, growth or phenotype altering)
Source text: In certain embodiments, peptides described herein can have multiple activities. Thus for example, a peptide can have both binding/targeting activity and antimicrobial activity. Such peptides can be used, e.g., in a chimeric construct, for any or all of these properties. Thus, for example, a peptide designated “B” in Table 8 can be used as a targeting peptide. If it is also designated G or M it can also be used for antimicrobial activity.

[2] = system: S. epidermidis; assay: Kill or inhibit growth/proliferation; morphology, biofilm and growth disruption (Tables 5, 6); assay type: cell-based, Staphylococcus epidermidis; design: key: A: Peptide aggregates; B: Less hyphal formation; Clumps; Diffuse clumps and small polyps; F: Diffuse growth; H: Thin; I: Growth inhibition; Microcolony formation; Rippled; Small polyps; Thick; W: Halo formation on top, microlonies on bottom; also: test concentration or dose not given here
[3] = system: MRSA; assay: as above; assay type: cell-based, Methicillin-resistant Staphylococcus aureus; design: key: A: Peptide aggregates; B: Less hyphal formation; Clumps; Diffuse clumps and small polyps; F: Diffuse growth; H: Thin; I: Growth inhibition; Microcolony formation; Rippled; Small polyps; Thick; W: Halo formation on top, microlonies on bottom; also: test concentration or dose not given here
[4] = system: C. jeikeium; assay: as above; assay type: cell-based, Corynebacterium jeikeium; design: key: A: Peptide aggregates; B: Less hyphal formation; Clumps; Diffuse clumps and small polyps; F: Diffuse growth; H: Thin; I: Growth inhibition; Microcolony formation; Rippled; Small polyps; Thick; W: Halo formation on top, microlonies on bottom; also: test concentration or dose not given here
[5] = system: M. luteus; assay: as above; assay type: cell-based, Micrococcus luteus; design: key: A: Peptide aggregates; B: Less hyphal formation; Clumps; Diffuse clumps and small polyps; F: Diffuse growth; H: Thin; I: Growth inhibition; Microcolony formation; Rippled; Small polyps; Thick; W: Halo formation on top, microlonies on bottom; also: test concentration or dose not given here
[6] = system: microorganisms (e.g., bacteria, yeasts, fungi); assay: Targeting peptide binding to target microorganisms (Table 3); details: preferably 1x PBS; for Target(s): microorganism(s) the targeting peptide binds; for Target(s) (microorganisms bound by the targeting peptide): peptide binding in aqueous buffers varied by peptide solubility
[7] = system: E. faecalis; assay: Kill or inhibit growth/proliferation; morphology, biofilm and growth disruption (Tables 5, 6); assay type: cell-based, Enterococcus faecalis; design: key: A: Peptide aggregates; B: Less hyphal formation; Clumps; Diffuse clumps and small polyps; F: Diffuse growth; H: Thin; I: Growth inhibition; Microcolony formation; Rippled; Small polyps; Thick; W: Halo formation on top, microlonies on bottom; also: test concentration or dose not given here
[8] = system: S. pneumoniae; assay: as above; assay type: cell-based, Streptococcus pneumoniae; design: key: A: Peptide aggregates; B: Less hyphal formation; Clumps; Diffuse clumps and small polyps; F: Diffuse growth; H: Thin; I: Growth inhibition; Microcolony formation; Rippled; Small polyps; Thick; W: Halo formation on top, microlonies on bottom; also: test concentration or dose not given here
[9] = system: E. coli; assay: as above; assay type: cell-based, Escherichia coli; design: key: A: Peptide aggregates; B: Less hyphal formation; Clumps; Diffuse clumps and small polyps; F: Diffuse growth; H: Thin; I: Growth inhibition; Microcolony formation; Rippled; Small polyps; Thick; W: Halo formation on top, microlonies on bottom; also: test concentration or dose not given here

Substance | Activities [1] | Organism, effect [2] | Organism, effect [3] | Organism, effect [4] | Organism, effect [5] | Target(s) ([6]; binding in aqueous buffers depending on peptide solubility) | Organism, effect [7] | Target(s) ([6]; peptide binding conducted in aqueous buffers varied by peptide solubility) | Organism, effect [8] | Organism, effect [9] | Target(s) (microorganisms bound by the targeting peptide) [6] | Organism, effect (morphology, biofilm and growth disruption) [2] | Organism, effect (morphology, biofilm and growth disruption) [3] | Organism, effect (morphology, biofilm and growth disruption) [7] | Organism, effect (morphology, biofilm and growth disruption) [4] | Organism, effect (morphology, biofilm and growth disruption) [8]
PF-001: peptide having multiple activities (chain 1 MNNWIIVAQLSVTVINEIIDIMKEKQKGGK; chain 2 MNNWIIVAQLSVTVINEIIDIMKEKQKGGK; Peptide with targeting and/or antimicrobial activity) | G B | S. epidermidis (C) | MRSA (R) | C. jeikeium (D) | M. luteus (C) |  |  |  |  |  |  |  |  |  |  | 
PF-004: peptide having multiple activities (chain 1 ARLSKAIIIAVIVVYHLDVRGLF; chain 2 ARLSKAIIIAVIVVYHLDVRGLF; Peptide with targeting and/or antimicrobial activity) | G B | S. epidermidis (A) | MRSA (R) | C. jeikeium (A) | M. luteus (A) |  |  |  |  |  |  |  |  |  |  | 
PF-012: peptide having multiple activities (chain 1 WRGPNTEAGGKSANNIVQVGGAPT; chain 2 WRGPNTEAGGKSANNIVQVGGAPT; Peptide with targeting and/or antimicrobial activity) | G B | S. epidermidis (S) | MRSA (R) | C. jeikeium (A) | M. luteus (C) |  |  |  |  |  |  |  |  |  |  | 
PF-022: peptide having multiple activities (chain 1 MINELKNKNSGIMNNYVVTKESKL; chain 2 MINELKNKNSGIMNNYVVTKESKL; Peptide with targeting and/or antimicrobial activity) | G B | S. epidermidis (D) | MRSA (R) | C. jeikeium (A) | M. luteus (A) |  |  |  |  |  |  |  |  |  |  | 
PF-030: peptide having multiple activities (chain 1 MTCHQAPTTTHQSNMA; chain 2 MTCHQAPTTTHQSNMA; Peptide with targeting and/or antimicrobial activity) | G B | S. epidermidis (D) | MRSA (R) | C. jeikeium (C) | M. luteus (C) |  |  |  |  |  |  |  |  |  |  | 
PF-139: peptide having multiple activities (ALSKPAIQARTLCRRQDPP; Peptide with targeting and/or antimicrobial activity) | G B | S. epidermidis (M) |  | C. jeikeium (R) | M. luteus (C) |  |  |  |  |  |  |  |  |  |  | 
PF-176: peptide having multiple activities (RLTSNQFLTRITPFVFAQH; Peptide with targeting and/or antimicrobial activity) | G B | S. epidermidis (C) |  | C. jeikeium (D) | M. luteus (C) | S. epidermidis and M. luteus and P. mirabilis and E. coli and C. albicans and MRSA and E. faecalis and C. jeikeium |  |  |  |  |  |  |  |  |  | 
PF-199 (FPAFSFGAIAGSVSVAR; Peptide with targeting and/or antimicrobial activity) |  | S. epidermidis (C) |  | C. jeikeium (R) | M. luteus (A) |  |  |  |  |  |  |  |  |  |  | 
PF-546: peptide having multiple activities (chain 1 PIIAPTIKTQIQ; chain 2 PIIAPTIKTQIQ; Peptide with targeting and/or antimicrobial activity) | G B | S. epidermidis (D) | MRSA (D) | C. jeikeium (D) |  |  | E. faecalis (D) | S. epidermidis; also recorded: E. coli; also recorded: C. albicans; also recorded: S. pneumoniae; also recorded: E. faecalis; also recorded: C. jeikeium | S. pneumoniae (D) | E. coli (R) |  |  |  |  |  | 
PF-622: peptide having multiple activities (TREDVFSVRLINNIVNKQA; Peptide with targeting and/or antimicrobial activity) | G B | S. epidermidis (D) | MRSA (D) | C. jeikeium (D) |  |  | E. faecalis (D) |  | S. pneumoniae (M) |  | S. epidermidis; also recorded: P. aeruginosa; also recorded: C. albicans; also recorded: S. pneumoniae; also recorded: E. faecalis; also recorded: C. jeikeium |  |  |  |  | 
PF-623: peptide having multiple activities (VLFAVYLGALDWLFSWLTQKM; Peptide with targeting and/or antimicrobial activity) | G B | S. epidermidis (M) | MRSA (D) | C. jeikeium (R) |  |  | E. faecalis (D) |  | S. pneumoniae (D) |  | S. epidermidis and P. aeruginosa and MRSA and S. pneumoniae and E. faecalis and C. jeikeium |  |  |  |  | 
PF-629: peptide having multiple activities (chain 1 GLAAIATVFALY; chain 2 GLAAIATVFALY; Peptide with targeting and/or antimicrobial activity) | G B | S. epidermidis (C) | MRSA (D) | C. jeikeium (R) |  |  | E. faecalis (R) |  | S. pneumoniae (M) |  | S. epidermidis and P. aeruginosa and C. albicans and MRSA and S. pneumoniae and E. faecalis and C. jeikeium |  |  |  |  | 
PF-637: peptide having multiple activities (chain 1 SRIKQDARSVRKYDRIGIFFYSFKSA; chain 2 SRIKQDARSVRKYDRIGIFFYSFKSA; Peptide with targeting and/or antimicrobial activity) | G B | S. epidermidis (M) | MRSA (M) | C. jeikeium (D) |  |  | E. faecalis (D) |  | S. pneumoniae (M) |  | S. epidermidis and P. aeruginosa and C. albicans and MRSA and S. pneumoniae and E. faecalis and C. jeikeium |  |  |  |  | 
PF-657 (chain 1 YVANYTITQFGRDFDDRLAVAIHFA; chain 2 YVANYTITQFGRDFDDRLAVAIHFA; Peptide with targeting and/or antimicrobial activity) |  |  |  |  |  |  |  |  |  |  | Mycobacteria spp | S. epidermidis (C) | MRSA (D) | E. faecalis (D) | C. jeikeium (D) | S. pneumoniae (H)
PF-681: peptide having multiple activities (chain 1 TALTTVGVSGARLITYCVGVEDI; chain 2 TALTTVGVSGARLITYCVGVEDI; Peptide with targeting and/or antimicrobial activity) | G B |  |  |  |  |  |  |  |  |  | M. smegmatis | S. epidermidis (M) | MRSA (M) | E. faecalis (R) | C. jeikeium (R) | S. pneumoniae (M)
PF-685 (chain 1 PTLWLACL; chain 2 PTLWLACL; Peptide with targeting and/or antimicrobial activity) |  |  |  |  |  |  |  |  |  |  | Mycobacteria spp | S. epidermidis (M) | MRSA (M) | E. faecalis (R) | C. jeikeium (R) | S. pneumoniae (M)
